Key:
NFKB1 = conditions: in vitro model, reference [11]; cited from earlier work
COX2 = conditions: in vitro model, reference [11]; cited from earlier work
3T3-L1 cells [1] = test: MTT cell viability / proliferation assay; type: cell-based, Mouse
Protocol: The cell viability was evaluated using the MTT assay. 3T3-L1 cells were seeded at a density of 1×10^3 in 96-well plates and incubated for 24h. Compounds 1 and 2 were added in the wells at various concentrations and then incubated at 37 °C. Cells were treated with compound 1 at concentrations of 62.5, 46.875, 31.25, 15.625, 7.81 and 3.9 µM. Cells were treated with compound 2 at concentrations of 62.5, 25.0, 12.5, 6.25 and 3.125 µM. After 24, 48, and 72 h of treatment, MTT solution was added in the wells at a final concentration of 0.5 mg/mL and incubated for 4 h. Cell culture media with MTT was removed and the formazan crystals were dissolved in 100 µl/well isopropanol/HCl (0.4%) and the absorbance was measured at 600 nm using the Infinite® 200 PRO microplate plate reader (Tecan, Zurich, Switzerland).

[2] = references [10, 11]; cited from earlier work
3T3-L1 cells [3] = test: Quantitative PCR of relative mRNA expression in cell culture samples; type: cell-based, Mouse; conditions: cells differentiated in the presence of compound, 12 days; 1 at 62.5 µM, 2 at 25 µM
Protocol: (§1) Mouse 3T3-L1 preadipocytes were maintained in proliferation medium containing DMEM supplemented with 10% (v/v) heat inactivated NBCS and 1% (v/v) penicillin-streptomycin at 37 °C with 5% CO2, humidified atmosphere. Cells were seeded in T-75 flasks at a density of 25×10^4 cells/flask. Cultures never became completely confluent according to the manufacturer's instructions. They were passaged using trypsin-EDTA solution once they reached 70-80% confluency. For differentiation, 3T3-L1 cells were seeded and after 24 h (day 1), cell differentiation was induced by changing the medium to high glucose DMEM containing 10% (v/v) heat inactivated FBS, 1% penicillin-streptomycin, 10 µg/mL insulin, 0.25 µM Dexamethasone (GAP), 0.5 mM IBMX (=differentiation medium I). On day 3, the medium was changed to high glucose DMEM containing 10% FBS, 1% penicillin- streptomycin, and 10 µg/mL insulin (=differentiation medium II). Thereafter, medium was changed every other day switching between differentiation medium I and differentiation medium II until day 12 or 23, when adipocytes were harvested. Control group preadipocytes were seeded at a higher density and harvested after two days. Test compounds were administered either at the initiation of differentiation, or after 15 days of differentiation and with every medium change. To determine the effect on preadipocyte differentiation, cells were seeded and after 24 h they were treated with neorogioldiol. Neorogioldiol was maintained in the culture medium throughout cell differentiation period. To determine the effect of neorogioldiol on mature adipocytes, cells were seeded and induced to differentiate for 14 days, then on day 15 neorogioldiol was added to the differentiation medium for 24 h before cells were harvested. Each compound used was diluted in a 90% carbowax™ 400, 10% (v/v) absolute ethanol solution serving as a control solvent. The final concentration in culture was 0.09% (v/v) carbowax and 0.01% (v/v) ethanol. Compounds were used at the following concentrations: neorogioldiol (1) 62.5µM and neorogioltriol (2) 25µM.
Adipocytes and preadipocytes were harvested using the TRI Reagent®. RNA isolation was carried out according to the manufacturer's instructions. The purified RNA was quantified using the Nanodrop micro-volume spectrophotometer and 500 ng of each sample were used as a template for reverse transcription. cDNA synthesis was performed using the PrimeScriptTM RT reagent Kit (TaKaRa, RR037A) according to manufacturer's instructions. The cDNA produced by the above described procedure was diluted and used as a template for two-step quantitative PCR in a StepOnePlus™ Real-Time PCR System (Applied Biosystems™, 4376600) for a maximum of 40 cycles, as follows: start step 95 °C for 3 min, repeat steps: 95 °C for 15 s and 60 °C for 30 s. Amplification was performed using KAPA SYBR® FAST Universal qPCR kit (Kapa Biosystems, KK4618) according to manufacturer's instructions. Relative quantitative analysis was accomplished calculating fold-changes of gene expression as 2-(ΔΔCt), where ΔCt is (Ct (gene of interest) - Ct (housekeeping gene)). Ppib was used as internal control gene in 3T3L1 cells and in the fat fraction of mice abdominal fat, Rps9 was used as internal control gene in the stromal vascular fraction of mice abdominal fat and Actb was used as internal control gene in liver samples. Table 1. List of primers used for quantitative real-time PCR analysis.

3T3-L1 adipocytes = test: Oil red o staining of intracellular lipid accumulation; type: cell-based, Mouse; conditions: differentiation induced in the presence of compound, after 12 days; 1 at 62.5 µM, 2 at 25 µM
Protocol: as §1, with “Compounds were used at the following concentrations: neorogioldiol (1) 62.5µM and neorogioltriol (2) 25µM.” left out
Oil red o staining was applied to measure lipid accumulation intracellularly. Briefly, after 12 or 23 days of differentiation, the cell culture medium was removed and the 3T3-L1 adipocytes were fixed in 3.7% formaldehyde for 60 min at room temperature. Next, a solution of 0.21% oil red o was filtered using a 0.45 µm filter followed by incubation of the fixed cells for 45 min at room temperature. Excess dye was removed and cells were washed twice with PBS. Fresh PBS was added and the lipid droplets within the differentiated 3T3-L1 cells were visualized and photographed by microscopy. For quantitative analysis, oil red o staining was eluted with 100% isopropanol and the absorbance was measured at 510 nm using the Infinite® 200 PRO microplate plate reader (Tecan, Zurich, Switzerland).

[4] = reference [12]; cited from earlier work

Row | Molecule | NFKB1 levels (NFKB1) | COX2 levels (COX2) | concentrations that did not exhibit cytotoxicity (3T3-L1 cells [1]; concentration chosen for further analyses) [µM] | concentration with cytostatic effects (3T3-L1 cells [1]; three-day incubation (24, 48, 72 h), compound 1: after the first 24 h of treatment) | analgesic properties in vivo [2] | anti-inflammatory properties in vivo [2] | Adipoq expression levels (3T3-L1 cells [3]) | Dlkl mRNA expression (3T3-L1 cells [3]) | Lep expression levels (3T3-L1 cells [3]) | Slc2a4 expression levels (3T3-L1 cells [3]) | lipid accumulation (3T3-L1 adipocytes) | anti-inflammatory activity [4]
1 | C=C([C@H]1CC[C@@](C)(O)[C@@H](Br)C1)[C@H]1[C@H](O)[C@@H]2[C@@H](CC[C@@]2(C)O)C1(C)C [neorogioltriol] | reducing | reducing | 25 | above 25 µM | potent | potent | restricted the increase | did not change | restricted the increase | restricted the increase | increased lipid accumulation | 
2 | O^11,15-cyclo-14-bromo-14,15-dihydrorogiol-3,11-diol |  |  |  |  |  |  |  |  |  |  |  | potent anti-inflammatory activity

From patent EP4556003A1, “ANTI-OBESITY AND ANTI-DIABETIC ACTIVITY OF BROMINATED DITERPENES FROM RED ALGAE OF THE GENUS LAURENCIA AND APPLICATIONS THEREOF” (priority 2023, dated 2025)
